According to EP2878677A1, “Activators of protein phosphatase 5” (Deutsches Zentrum für Neurodegenerative Erkrankungen e.V. …, priority 2013, dated 2015):

Target: T1, PPH-5 (Caenorhabditis elegans, UniProt Q9NES8)
T1 construct: made in house
T1 sequence (Q9NES8 1-496): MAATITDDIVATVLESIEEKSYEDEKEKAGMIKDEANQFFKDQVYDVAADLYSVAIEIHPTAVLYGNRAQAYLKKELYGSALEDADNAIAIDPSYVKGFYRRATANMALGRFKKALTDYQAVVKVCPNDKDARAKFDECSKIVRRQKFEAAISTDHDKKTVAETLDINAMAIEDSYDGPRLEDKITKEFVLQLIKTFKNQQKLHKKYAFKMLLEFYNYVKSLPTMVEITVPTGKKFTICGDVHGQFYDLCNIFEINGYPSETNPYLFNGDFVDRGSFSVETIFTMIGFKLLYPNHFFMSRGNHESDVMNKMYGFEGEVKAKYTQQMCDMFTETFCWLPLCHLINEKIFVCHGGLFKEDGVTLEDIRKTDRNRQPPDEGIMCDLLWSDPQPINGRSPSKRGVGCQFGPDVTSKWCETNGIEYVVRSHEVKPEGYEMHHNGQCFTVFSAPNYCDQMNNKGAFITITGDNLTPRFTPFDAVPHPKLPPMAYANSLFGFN
Experiment: pNPP-based phosphatase assay with nematode PPH-5
Assay type: biochemical, C. elegans
Conditions: for Kd: apparent KD-value in the pNPP-based assay, 20 °C; for effect on the enzymatic activity of PPH-5 in the compound screen: initial screen of 15,000 compounds, pNPP, P5SAs at 50 ng/mL
Procedure: At some instances, the present application refers to "measuring the enzymatic activity" of an enzyme. As used herein, this means that a measured value that is proportional to or reflects the enzymatic activity of that enzyme is measured. For example, the present application may refer to "measuring the enzymatic activity of protein phosphatase 5". Typically, this means that an in vitro reaction of protein phosphatase 5 with a suitable substrate is carried out.As the substrate para-nitrophenyl phosphate (pNPP) is used. The conditions for the phosphatase reaction are 40 mM HEPES/KOH, 20 mM KCl, 5 mM MnCl2, 1 mM DTT, pH 7.5. The reaction is carried out at 20° C. The starting concentration of pNPP is 60 mM. The concentration of the compound to be tested, if present, is in the range of 50-500 nM, preferably in the range of 100-250 nM, more preferably 50, 250 or 500 nM, more preferably 250 nM. As phosphatase, bacterially expressed and purified phosphatase is used. The concentration of the phosphatase in the reaction is 30 nM. The rate at which the dephosphorylation of this substrate proceeds is monitored, typically by measuring the rate of formation of the reaction product by spectroscopic measurements (dephosphorylation of pNPP, e.g., results in generation of p-nitrophenol, a chromogenic product with strong absorbance at about 410 nm (extinction coefficient ε = 15100 cm^-1M^-1), thus allowing to monitor generation of the reaction product by monitoring the absorbance at 410 nm). If the reaction is carried out in the presence of an excess of substrate, the initial velocity at which the reaction product is generated (i.e. the slope of the initial phase of the curve in a graph plotting the absorbance at 410 nm over time) is proportional to the enzymatic activity of protein phosphatase 5under the specific reaction conditions used. Alternatively, after starting the phosphatase reaction the reaction may be allowed to proceed for a defined incubation period (usually 30 minutes), then the reaction is stopped (for example by addition of a small volume of 1 M NaOH), and the absorbance at 410 nm is measured. Upon subtraction of the absorbance of a negative control (a reaction carried out with a non-functional, for example pre-boiled, phosphatase), the obtained value is proportional to the enzymatic activity of protein phosphatase 5 under the specific reaction conditions used (since the reaction is carried out in the presence of an excess of substrate and the incubation period is chosen such that the reaction is stopped while it is still in the quasi-linear Phase). Phosphatase activity was followed by the conversion of para-nitrophenyl phosphate (pNPP) to para-nitophenole and absorption of the product at 410 nm (ε: 15100 cm^-1 M^-1) in a Varian Cary 100 spectrophotometer (Agilent Technologies, Boeblingen, Germany). The reaction was measured in 40 mM HEPES/KOH, 20 mM KCl, 5 mM MnCl2, 1 mM DTT, pH 7.5 and 60 mM pNPP at 20 °C if not indicated otherwise. Phosphatase concentration ranged from 50 to 500 nM in the assay. If indicated, Hsp90/DAF-21 peptide was supplemented in the assay at a concentration of 60 μM. The protein phosphatase 5 is a highly regulated enzyme. The autoinhibition of the phosphatase is controlled by the N-terminal TPR domain and the C-terminal αJ helix, implying a complex mechanism to control the turnover rate (Yang et al., 2005). A compound screen was carried out to identify small molecules which can alter the activity of the phosphatase. The C. elegans homolog of protein phosphatase 5 was used (activity of nematode protein phosphatase 5 (PPH-5) at 20 °C: ∼0.62 sec^-1; mammalian PP5: ∼0.12 sec^-1). The homology between nematode PPH-5 and human PP5 is pronounced with a sequence conservation of almost 80% (Figure 6). Using the substrate para-nitrophenyl phosphate (pNPP), a library of 15,000 compounds was analyzed. […]

fold activation (at 714 µM) | Structure (SMILES) | fold activation ((sat.)) | Kd | effect on the enzymatic activity of PPH-5 in the compound screen | influence of MEEVD peptide on affinity to PPH-5 (60 µM MEEVD peptide, titration by phosphatase assay)
 | COc1ccc(-c2nc(Cc3ccc(Cl)cc3)no2)cc1OC [P5SA-2] | 9.6 fold | 7.8 ± 1.4 µM | activating effect | 
4.0 fold | CN1CCc2c(sc(-n3cccc3)c2CNC(=O)NC23CC4CC(CC(C4)C2)C3)C1 [P5SA-3] |  |  | activating effect | 
 | FC(F)(F)c1c2c(nc3c(-c4ccc(Cl)cc4)cnn13)CCC2 [P5SA-1] | 3.7 fold | 13.3 ± 4.2 µM | activating effect | 
 | CNC(=O)c1c(NC(=O)COCC(=O)Nc2sc3c(c2C(=O)NC)CCC3)sc2c1CCC2 [P5SA-5] | 8.4 fold | 6.4 ± 1.8 µM | activating effect | minor influence
 | O=c1cc2nc(-c3ccc(F)cc3)nc(SCc3ccc(Br)cc3)n2[nH]1 [P5SA-4] | 7.8 fold | 25.7 ± 5.5 µM | activating effect | 
